From US20030203414A1, “COMPOUNDS THAT INHIBIT THE INTERACTION BETWEEN SIGNAL-TRANSDUCING PROTEINS AND THE GLGF (PDZ/DHR) DOMAIN AND USES THEREOF” (priority 1999, published 2003)
“Also recorded” adds a separate entry of the source. No end group written: not given here.

Legend:
Fas/FAP-1 binding = experiment: In vitro inhibition assay of Fas/FAP-1 binding (GST-Fas fusion protein and in vitro-translated 35S-labeled FAP-1); conditions: for binding of in vitro-translated FAP-1 to GST-Fas: FIG. 3A, GST-Fas (191-355), C-terminal 15 amino acids at 1-1000 μM, human PAMP at 1 mM as negative control
Description: HFAP-10 cDNA (Sato, et al. 1995) subcloned into the Bluescript vector pSK-II (Stratagene) was in vitro-translated from an internal methionine codon in the presence of ^35S-L-methionine using a coupled in vitro transcription/translation system (Promega, TNT lysate) and T7 RNA polymerase. The resulting ^35S-labeled protein was incubated with GST-Fas fusion proteins that had been immobilized on […] affinity beads (Pharmacia) in a buffer containing 150 mM NaCl, 50 mM Tris [pH 8.0], 5 mM DTT, 2 mM EDTA, 0.1% NP-40, 1 mM PMSF, 50 μg/ml leupeptin, 1 mM Benzamidine, and 7 μg/ml pepstatin for 16 hours at 4° C. After washing vigorously 4 times in the same buffer, associated proteins were recovered with the glutathione-Sepharose beads by centrifugation, eluted into boiling Laemmli buffer, and analyzed by SDS-PAGE and fluorography.
In vitro-translated [^35]HFAP-1 was purified with a NAP-5 column (Pharmacia) and incubated with 3 μM of GST-fusion proteins for 16 hours at 4° C. After washing 4 times in the binding buffer, radioactivity incorporation was determined in a b counter. The percentage of binding inhibition was calculated as follows: percent inhibition=[radioactivity incorporation using GST-Fas (191-335) with peptides−radioactivity incorporation using GST-Fas (191-320) with peptides]/[radioactivity incorporation using GST-Fas (191-335) without peptides−radioactivity incorporation using GST-Fas (191-320) without peptides]. n=3.

[1] = target: T1, binding of FAP-1 to Fas proteins extracted from Jurkat T-cells (Homo sapiens, UniProt Q12923); experiment: Immuno-precipitation of native Fas from Jurkat T-cell extracts with GST-FAP-1, inhibition with tripeptides; conditions: FIGS. 4C and 4D, Western analysis with anti-Fas monoclonal antibody
T1 construct: made in house; Fas is endogenous in Jurkat T-cell extract
Description: GST-fusion proteins with or without FAP-1 were incubated with cell extracts from Jurkat T-cells expressing Fas. The bound Fas was detected by Western analysis using anti-Fas monoclonal antibody (F22120, Transduction Laboratories). The tripeptides, Ac-SLV and Ac-SLY were used for the inhibition assay of Fas/FAP-1 binding.

[2] = tested on: DLD-1 human colon cancer cells; experiment: Microinjection of synthetic tripeptides into DLD-1 cells, Fas-induced apoptosis; type: cell-based; conditions: tripeptide 100 mM microinjected into the cytoplasm; CH11 500 ng/ml; 16 to 20 hours postinjection; condensed chromatin, Hoechst 33342
Description: DLD-1 human colon cancer cells were cultured in RPMI 1640 medium containing 10% FCS. For microinjection, cells were plated on CELLocate (Eppendorf) at 1×10^5 cells/2 ml in a 35 mm plastic culture dish and grown for 1 day. Just before microinjection, Fas monoclonal antibodies CH11 (MBL International) was added at the concentration of 500 ng/ml. All microinjection experiments were performed using an automatic microinjection system (Eppendorf transjector 5246, micro-manipulator 5171 and Femtotips) (Pantel, et al. 1995). Synthetic tripeptides were suspended in 0.1% (w/v) FITC-Dextran (Sigma)/K-PBS at the concentration of 100 mM. The samples were microinjected into the cytoplasmic region of DLD-1 cells. Sixteen to 20 hours postinjection, the cells were washed with PBS and stained with 10 μg/ml Hoechst 33342 in PBS. After incubation at 37° C. for 30 minutes, the cells were photographed and the cells showing condensed chromatin were counted as apoptotic.
For each experiment, 25-100 cells were microinjected. Apoptosis of microinjected cells was determined by assessing morphological changes of chromatin using phase contrast and fluorescence microscopy (Wang, et al., 1995; McGahon, et al., 1995). The data are means +/−S.D. for two or three independent determinations.

Fas/FAP-1 binding, sequence (Q12923 1361-1456 limits assumed): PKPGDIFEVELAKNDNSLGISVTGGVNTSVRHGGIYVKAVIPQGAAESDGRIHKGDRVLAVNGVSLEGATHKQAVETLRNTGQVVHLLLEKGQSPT
T1 sequence (Q12923 whole entry): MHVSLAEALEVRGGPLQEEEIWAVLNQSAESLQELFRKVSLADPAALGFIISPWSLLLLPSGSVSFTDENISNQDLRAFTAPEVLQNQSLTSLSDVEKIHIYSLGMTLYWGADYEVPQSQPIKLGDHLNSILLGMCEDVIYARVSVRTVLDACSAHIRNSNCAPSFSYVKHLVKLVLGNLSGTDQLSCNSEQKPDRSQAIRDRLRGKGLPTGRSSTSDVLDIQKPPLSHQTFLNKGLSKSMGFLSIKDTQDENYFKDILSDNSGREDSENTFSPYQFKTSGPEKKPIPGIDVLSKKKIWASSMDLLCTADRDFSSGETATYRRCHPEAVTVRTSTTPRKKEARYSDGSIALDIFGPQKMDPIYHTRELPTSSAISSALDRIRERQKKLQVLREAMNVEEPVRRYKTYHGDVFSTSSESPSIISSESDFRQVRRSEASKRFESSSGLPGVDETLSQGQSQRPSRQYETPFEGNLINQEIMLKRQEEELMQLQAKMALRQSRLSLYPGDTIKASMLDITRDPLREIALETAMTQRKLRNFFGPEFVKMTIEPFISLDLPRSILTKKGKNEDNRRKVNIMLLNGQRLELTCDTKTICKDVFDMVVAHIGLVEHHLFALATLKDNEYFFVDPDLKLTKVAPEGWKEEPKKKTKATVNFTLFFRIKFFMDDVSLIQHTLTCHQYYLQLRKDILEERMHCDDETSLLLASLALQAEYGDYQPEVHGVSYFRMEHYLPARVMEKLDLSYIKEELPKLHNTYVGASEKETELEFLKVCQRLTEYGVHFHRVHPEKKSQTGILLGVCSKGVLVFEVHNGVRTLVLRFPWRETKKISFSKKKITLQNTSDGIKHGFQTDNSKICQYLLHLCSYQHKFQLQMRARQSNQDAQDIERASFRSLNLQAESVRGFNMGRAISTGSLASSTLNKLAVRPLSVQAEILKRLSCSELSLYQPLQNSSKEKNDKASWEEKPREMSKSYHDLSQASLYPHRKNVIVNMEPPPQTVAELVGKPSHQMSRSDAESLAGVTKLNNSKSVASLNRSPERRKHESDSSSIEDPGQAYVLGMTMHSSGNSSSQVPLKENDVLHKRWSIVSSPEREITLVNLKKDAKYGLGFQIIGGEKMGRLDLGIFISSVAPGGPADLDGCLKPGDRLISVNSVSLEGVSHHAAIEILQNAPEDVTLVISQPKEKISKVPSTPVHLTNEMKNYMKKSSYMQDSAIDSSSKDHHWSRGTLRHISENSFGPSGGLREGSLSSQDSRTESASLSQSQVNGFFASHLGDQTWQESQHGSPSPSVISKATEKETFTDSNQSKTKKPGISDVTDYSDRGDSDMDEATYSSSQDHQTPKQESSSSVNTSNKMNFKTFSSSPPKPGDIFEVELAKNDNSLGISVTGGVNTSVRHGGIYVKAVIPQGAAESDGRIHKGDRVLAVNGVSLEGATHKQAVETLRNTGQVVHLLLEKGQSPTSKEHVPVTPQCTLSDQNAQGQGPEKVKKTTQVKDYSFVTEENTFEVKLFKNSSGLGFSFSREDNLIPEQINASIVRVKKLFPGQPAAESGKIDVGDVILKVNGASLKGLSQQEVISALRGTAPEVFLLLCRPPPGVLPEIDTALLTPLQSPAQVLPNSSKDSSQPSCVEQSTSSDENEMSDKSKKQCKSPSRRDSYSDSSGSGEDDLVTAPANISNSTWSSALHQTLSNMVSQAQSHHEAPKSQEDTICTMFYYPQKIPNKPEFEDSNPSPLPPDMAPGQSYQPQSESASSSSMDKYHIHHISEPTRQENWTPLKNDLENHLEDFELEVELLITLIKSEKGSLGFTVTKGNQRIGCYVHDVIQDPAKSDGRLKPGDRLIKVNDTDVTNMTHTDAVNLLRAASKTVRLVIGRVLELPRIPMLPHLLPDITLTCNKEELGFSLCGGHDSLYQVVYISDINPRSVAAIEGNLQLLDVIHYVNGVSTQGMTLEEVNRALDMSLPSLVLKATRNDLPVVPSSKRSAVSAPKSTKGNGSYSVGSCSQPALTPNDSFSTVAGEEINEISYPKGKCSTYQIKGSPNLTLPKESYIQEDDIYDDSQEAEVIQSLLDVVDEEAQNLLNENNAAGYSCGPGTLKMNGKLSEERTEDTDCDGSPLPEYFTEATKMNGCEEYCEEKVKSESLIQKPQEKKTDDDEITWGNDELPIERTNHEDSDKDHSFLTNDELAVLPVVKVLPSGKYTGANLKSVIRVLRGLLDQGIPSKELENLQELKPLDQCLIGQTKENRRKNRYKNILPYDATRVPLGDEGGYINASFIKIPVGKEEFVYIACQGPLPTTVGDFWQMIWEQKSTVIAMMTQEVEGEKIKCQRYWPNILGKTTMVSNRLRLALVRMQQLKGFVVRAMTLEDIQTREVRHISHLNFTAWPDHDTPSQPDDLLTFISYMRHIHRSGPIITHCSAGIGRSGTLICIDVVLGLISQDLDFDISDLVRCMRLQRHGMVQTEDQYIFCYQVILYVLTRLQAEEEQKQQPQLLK

With “Ac-SLV-COOH (Ac-Ser-Leu-Val-OH) [acetylated tripeptide, the three C-terminal amino acids of Fas]” the “inhibitory effect on the binding of FAP-1 to Fas, truncated C-terminal peptides” value (Fas/FAP-1 binding; FIG. 3B, acetylated synthetic peptides) was “same level of inhibitory effect”, the “binding activity of FAP-1 to Fas proteins extracted from Jurkat T-cells” value [1] was “abolished in a dose-dependent manner” and the “induction of apoptosis in microinjected DLD-1 cells” value [2] was “dramatically induced apoptosis; also recorded: showed condensed chromatin”.

“Ac-SLY: acetylated synthetic tripeptide SLY used as a non-binding control (Ac-Ser-Leu-Tyr) [reference compound]” was tested, and the “binding activity of FAP-1 to Fas proteins extracted from Jurkat T-cells” value [1] was “not” and the “induction of apoptosis in microinjected DLD-1 cells” value [2] was “did not; also recorded: only one cell of the area appeared apoptotic”.

“DSENSNFRNEIQSLV (Ac-DSENSNFRNEIQSLV) [synthetic 15 amino acids of Fas, synthetic peptide of the C-terminal 15 amino acids of Fas]” was tested, and the “binding of in vitro-translated FAP-1 to GST-Fas” value (Fas/FAP-1 binding) was “dramatically reduced”.

“human PAMP peptide: N-terminal 20 amino acids of proadrenomedullin, negative control (ARLDVASEFRKKWNKWALSR; ends and bridges not checked; UniProt P35318 22-41, looked up) [reference compound]” was tested, and the “binding of in vitro-translated FAP-1 to GST-Fas” value (Fas/FAP-1 binding) was “had no effect”.
